According to patent publication US20260262643A1, “HERBICIDAL BENZOXAZINES” (FMC CORPORATION, priority 2022, published 2026):

Assays:
blackgrass [1] = assay: Test A preemergence; type: in vivo, Alopecurus myosuroides; conditions: 1000 g ai/ha, 0 to 100 scale (0 no effect, 100 complete control), 10 days; for pest or weed control at 1000 g/ha: Alopecurus myosuroides, pre-emergence, 240 h, read-out: Plant response rating, Blackgrass
From the text: (§1) Seeds of plant species selected from barnyardgrass (Echinochloa crusgalli), blackgrass (Alopecurus myosuroides), corn (Zea mays), foxtail, giant (giant foxtail, Setaria faberi), goosegrass (Eleusine indica), kochia (Bassia scoparia), oat, wild (wild oat, Avena fatua), pigweed, palmer (palmer amaranth, palmer pigweed, Amaranthus palmeri), Pigweed, Redroot (redroot pigweed, Amaranthus retroflexus), ragweed (common ragweed, Ambrosia artemisiifolia), ryegrass, Italian (italian ryegrass, Lolium multiflorum), soybean (Glycine max), and wheat (Triticum aestivum) were planted into a blend of loam soil and sand and treated preemergence with a directed soil spray using test chemicals formulated in a non-phytotoxic solvent mixture which included a surfactant. At the same time, plants selected from these crops and weed species and also galium (catchweed bedstraw, Galium aparine) and horseweed (Erigeron canadensis) were planted in pots containing the same blend of loam soil and sand and treated with postemergence applications of test chemicals formulated in the same manner. Plants ranged in height from 2 to 10 cm and were in the one- to two-leaf stage for the postemergence treatment. Treated plants and untreated controls were maintained in a greenhouse for 10 days, after which time all treated plants were compared to untreated controls and visually evaluated for injury. Plant response ratings, summarized in Table A, are based on a 0 to 100 scale where 0 is no effect and 100 is complete control. A dash (-) response means no test result.

foxtail, giant [2] = assay: Test A postemergence; type: in vivo, Setaria faberi; conditions: 1000 g ai/ha, Postemergence, 0 to 100 scale; for pest or weed control at 1000 g/ha: Setaria faberi, post-emergence, 240 h, read-out: Plant response rating, Foxtail, Giant
From the text: as §1

ragweed [3] = assay: Test A preemergence; type: in vivo, Ambrosia artemisiifolia; conditions: 1000 g ai/ha, 0 to 100 scale (0 no effect, 100 complete control), 10 days; for pest or weed control at 1000 g/ha: Ambrosia artemisiifolia, pre-emergence, 240 h, read-out: Plant response rating, Ragweed
From the text: as §1

kochia [4] = assay: Test A preemergence; type: in vivo, Bassia scoparia; conditions: 1000 g ai/ha, 0 to 100 scale (0 no effect, 100 complete control), 10 days; for pest or weed control at 1000 g/ha: Bassia scoparia, pre-emergence, 240 h, read-out: Plant response rating, Kochia
From the text: as §1

rice = assay: Test B flooded paddy test; type: in vivo, Oryza sativa; conditions: 250 g ai/ha, Flood, 13 days, 0 to 100 scale (0 no effect, 100 complete control); for plant injury at 250 g/ha: Oryza sativa, 312 h, read-out: Plant response rating, Rice
Method: (§2) Plant species in the flooded paddy test selected from barnyardgrass (Echinochloa crus-galli), ducksalad (Heteranthera limosa), rice (Oryza sativa), and sedge, umbrella (small-flower umbrella sedge, Cyperus difformis) were grown to the 2-leaf stage for testing. At time of treatment, test pots were flooded to 3 cm above the soil surface, treated by application of test compounds directly to the paddy water, and then maintained at that water depth for the duration of the test. Treated plants and controls were maintained in a greenhouse for 13 days, after which time all species were compared to controls and visually evaluated. Plant response ratings, summarized in Table B, are based on a scale of 0 to 100 where 0 is no effect and 100 is complete control. A dash (-) response means no test result.

sedge, umbrella = assay: Test B flooded paddy test; type: in vivo, Cyperus difformis; conditions: 250 g ai/ha, Flood, 13 days, 0 to 100 scale (0 no effect, 100 complete control); for pest or weed control at 250 g/ha: Cyperus difformis, 312 h, read-out: Plant response rating, Sedge, Umbrella
Method: as §2

kochia [5] = assay: Test A postemergence; type: in vivo, Bassia scoparia; conditions: 1000 g ai/ha, Postemergence, 0 to 100 scale; for pest or weed control at 1000 g/ha: Bassia scoparia, post-emergence, 240 h, read-out: Plant response rating, Kochia
From the text: as §1

ryegrass, Italian [6] = assay: Test A preemergence; type: in vivo, Lolium multiflorum; conditions: 1000 g ai/ha, 0 to 100 scale (0 no effect, 100 complete control), 10 days; for pest or weed control at 1000 g/ha: Lolium multiflorum, pre-emergence, 240 h, read-out: Plant response rating, Ryegrass, Italian
From the text: as §1

foxtail, giant [7] = assay: Test A preemergence; type: in vivo, Setaria faberi; conditions: 1000 g ai/ha, 0 to 100 scale (0 no effect, 100 complete control), 10 days; for pest or weed control at 1000 g/ha: Setaria faberi, pre-emergence, 240 h, read-out: Plant response rating, Foxtail, Giant
From the text: as §1

pigweed, palmer [8] = assay: Test A preemergence; type: in vivo, Amaranthus palmeri; conditions: 1000 g ai/ha, 0 to 100 scale (0 no effect, 100 complete control), 10 days; for pest or weed control at 1000 g/ha: Amaranthus palmeri, pre-emergence, 240 h, read-out: Plant response rating, Pigweed, Palmer
From the text: as §1

pigweed, palmer [9] = assay: Test A postemergence; type: in vivo, Amaranthus palmeri; conditions: 1000 g ai/ha, Postemergence, 0 to 100 scale; for pest or weed control at 1000 g/ha: Amaranthus palmeri, post-emergence, 240 h, read-out: Plant response rating, Pigweed, Palmer
From the text: as §1

galium = assay: Test A postemergence; type: in vivo, Galium aparine; conditions: 1000 g ai/ha, Postemergence, 0 to 100 scale; for pest or weed control at 1000 g/ha: Galium, post-emergence, 240 h, read-out: Plant response rating, Galium
From the text: as §1

ryegrass, Italian [10] = assay: Test A postemergence; type: in vivo, Lolium multiflorum; conditions: 1000 g ai/ha, Postemergence, 0 to 100 scale; for pest or weed control at 1000 g/ha: Lolium multiflorum, post-emergence, 240 h, read-out: Plant response rating, Ryegrass, Italian
From the text: as §1

ragweed [11] = assay: Test A postemergence; type: in vivo, Ambrosia artemisiifolia; conditions: 1000 g ai/ha, Postemergence, 0 to 100 scale; for pest or weed control at 1000 g/ha: Ambrosia artemisiifolia, post-emergence, 240 h, read-out: Plant response rating, Ragweed
From the text: as §1

blackgrass [12] = assay: Test A postemergence; type: in vivo, Alopecurus myosuroides; conditions: 1000 g ai/ha, Postemergence, 0 to 100 scale; for pest or weed control at 1000 g/ha: Alopecurus myosuroides, post-emergence, 240 h, read-out: Plant response rating, Blackgrass
From the text: as §1

ducksalad = assay: Test B flooded paddy test; type: in vivo, Heteranthera limosa; conditions: 250 g ai/ha, Flood, 13 days, 0 to 100 scale (0 no effect, 100 complete control); for pest or weed control at 250 g/ha: Heteranthera limosa, 312 h, read-out: Plant response rating, Ducksalad
Method: as §2

barnyardgrass = assay: Test B flooded paddy test; type: in vivo, Echinochloa crus-galli; conditions: 250 g ai/ha, Flood, 13 days, 0 to 100 scale (0 no effect, 100 complete control); for pest or weed control at 250 g/ha: Echinochloa crus-galli, 312 h, read-out: Plant response rating, Barnyardgrass
Method: as §2

goosegrass [13] = assay: Test A preemergence; type: in vivo, Eleusine indica; conditions: 1000 g ai/ha, 0 to 100 scale (0 no effect, 100 complete control), 10 days; for pest or weed control at 1000 g/ha: Eleusine indica, pre-emergence, 240 h, read-out: Plant response rating, Goosegrass
From the text: as §1

horseweed = assay: Test A postemergence; type: in vivo, Erigeron canadensis; conditions: 1000 g ai/ha, Postemergence, 0 to 100 scale; for pest or weed control at 1000 g/ha: Erigeron canadensis, post-emergence, 240 h, read-out: Plant response rating, Horseweed
From the text: as §1

goosegrass [14] = assay: Test A postemergence; type: in vivo, Eleusine indica; conditions: 1000 g ai/ha, Postemergence, 0 to 100 scale; for pest or weed control at 1000 g/ha: Eleusine indica, post-emergence, 240 h, read-out: Plant response rating, Goosegrass
From the text: as §1

SMILES | Plant response rating, Blackgrass (blackgrass [1]) | Plant response rating, Foxtail, Giant (foxtail, giant [2]) | Plant response rating, Ragweed (ragweed [3]) | Plant response rating, Kochia (kochia [4]) | Plant response rating, Rice (rice) | Plant response rating, Sedge, Umbrella (sedge, umbrella) | Plant response rating, Kochia (kochia [5]) | Plant response rating, Ryegrass, Italian (ryegrass, Italian [6]) | Plant response rating, Foxtail, Giant (foxtail, giant [7]) | Plant response rating, Pigweed, Palmer (pigweed, palmer [8]) | Plant response rating, Pigweed, Palmer (pigweed, palmer [9]) | Plant response rating, Galium (galium) | Plant response rating, Ryegrass, Italian (ryegrass, Italian [10]) | Plant response rating, Ragweed (ragweed [11]) | Plant response rating, Blackgrass (blackgrass [12]) | Plant response rating, Ducksalad (ducksalad) | Plant response rating, Barnyardgrass (barnyardgrass) | Plant response rating, Goosegrass (goosegrass [13]) | Plant response rating, Horseweed (horseweed) | Plant response rating, Goosegrass (goosegrass [14]) | further results
Cc1cccc2c1O[C@H](C(F)(F)F)CN2C(=O)c1cccc(-n2cncn2)c1 (single isomer, unassigned) [Compound 58] | – | – | – | – | – | – | – | – | – | – | – | – | – | – | – | – | – | – | – | – | pest or weed control at 1000 g/ha (blackgrass [1]): 40%; pest or weed control at 1000 g/ha (foxtail, giant [2]): 30%; pest or weed control at 1000 g/ha (ragweed [3]): 0%; pest or weed control at 1000 g/ha (kochia [4]): 20%; plant injury at 250 g/ha (rice): 0%; pest or weed control at 250 g/ha (sedge, umbrella): 0%; pest or weed control at 1000 g/ha (kochia [5]): 60%; pest or weed control at 1000 g/ha (ryegrass, Italian [6]): 90%; pest or weed control at 1000 g/ha (foxtail, giant [7]): 80%; pest or weed control at 1000 g/ha (pigweed, palmer [8]): 80%; pest or weed control at 1000 g/ha (pigweed, palmer [9]): 20%; pest or weed control at 1000 g/ha (galium): 60%; pest or weed control at 1000 g/ha (ryegrass, Italian [10]): 30%; pest or weed control at 1000 g/ha (ragweed [11]): 10%; pest or weed control at 1000 g/ha (blackgrass [12]): 20%; pest or weed control at 250 g/ha (ducksalad): 0%; pest or weed control at 250 g/ha (barnyardgrass): 0%; pest or weed control at 1000 g/ha (goosegrass [13]): 90%; pest or weed control at 1000 g/ha (horseweed): 0%; pest or weed control at 1000 g/ha (goosegrass [14]): 20%
Cc1cccc2c1O[C@@H](C(F)(F)F)CN2C(=O)c1cccc(-n2cncn2)c1 (single isomer, unassigned) [Compound 68] | – | – | – | – | – | – | – | – | – | – | – | – | – | – | – | – | – | – | – | – | pest or weed control at 1000 g/ha (blackgrass [1]): 80%; pest or weed control at 1000 g/ha (foxtail, giant [2]): 90%; pest or weed control at 1000 g/ha (ragweed [3]): 70%; pest or weed control at 1000 g/ha (kochia [4]): 90%; plant injury at 250 g/ha (rice): 0%; pest or weed control at 250 g/ha (sedge, umbrella): 65%; pest or weed control at 1000 g/ha (kochia [5]): 80%; pest or weed control at 1000 g/ha (ryegrass, Italian [6]): 100%; pest or weed control at 1000 g/ha (foxtail, giant [7]): 100%; pest or weed control at 1000 g/ha (pigweed, palmer [8]): 100%; pest or weed control at 1000 g/ha (pigweed, palmer [9]): 50%; pest or weed control at 1000 g/ha (galium): 100%; pest or weed control at 1000 g/ha (ryegrass, Italian [10]): 90%; pest or weed control at 1000 g/ha (ragweed [11]): 60%; pest or weed control at 1000 g/ha (blackgrass [12]): 80%; pest or weed control at 250 g/ha (ducksalad): 55%; pest or weed control at 250 g/ha (barnyardgrass): 0%; pest or weed control at 1000 g/ha (goosegrass [13]): 100%; pest or weed control at 1000 g/ha (horseweed): 0%; pest or weed control at 1000 g/ha (goosegrass [14]): 90%
Cc1cc(C(=O)N2CC(C)Oc3c(Cl)cccc32)cc(-n2cncn2)c1 (stereo not shown) [Compound 32] | 80 | 100 | 0 | 30 | 0 | 0 | 60 | 100 | 100 | 90 | 70 | 100 | 90 | 20 | 80 | 0 | 0 | 100 | 0 | 80 | –
Cc1ccc(-n2cncn2)cc1C(=O)N1CC(C)Oc2c(Cl)cccc21 (stereo not shown) [Compound 33] | 100 | 100 | 100 | 70 | 0 | 65 | 70 | 100 | 100 | 100 | 100 | 100 | 100 | 80 | 90 | 30 | 30 | 100 | 30 | 90 | –
O=C(c1ccnc(-n2cncn2)c1)N1CC(C(F)(F)F)Oc2c(Cl)cccc21 (stereo not shown) [Compound 34] | 80 | 100 | 20 | 90 | 0 | 0 | 100 | 90 | 100 | 100 | 80 | 100 | 90 | 50 | 70 | 0 | 0 | 100 | 0 | 50 | –
